# Experimental data as given in US8772448B2, “Peptides immunoreactive with autoantibodies from patients suffering from rheumatoid arthritis” (Stichting Voor de Technische Wetenschappen, priority 1996, dated 2014).
# Where no end group is shown, it is not given here. [ ]: non-standard residue; d: D form. Cit = NC(=O)NCCC[C@H](N)C(=O)O
# Legend:
# [1] = test system: antibodies in SSC (systemic scleroderma) sera; experiment: ELISA of coupled peptides with SSC sera; format: binding, human; details: n = 50
# Procedure: (§1) Detection by Means of ELISA
# (§2) Via an N-oxysuccinimide surface the peptides were covalently coupled to the wells of 96-well microtitre plates (Costar amide binding plates) in an amount of 1 ? g/well. Coupling took place for 16 hours at 4EC and pH 9.0. The plates were blocked for 1 hour with 2% bovine serum albumin. The sera were diluted 200 times in a diluent (0.3% BSA, 350 mM NaCl, 10 mM Tris-HCl pH 7.6, 1% vol./vol. Triton X-100, 0.5% w./vol. Na-deoxycholate, 0.1% SDS) supplemented with 10% normal rabbit serum, and incubated for one hour at room temperature. After washing the plates (3 times with PBS containing 0.05 by vol. of Tween® 20), 100 ? l of antihuman IgG conjugated with peroxidase (Dako P214), 1000 times diluted in dilution buffer, was added to the wells. After incubation for 1 hour at room temperature, the plates were washed 3 times with PBS/Tween®, and bound antibodies were detected with tetramethyl benzidine as a substrate. After 10 minutes the reaction was stopped by adding 100 ? l of 2 M sulphuric acid per well. Readout occurred at 450 nm. Sera having an OD450 of 0.2, after deduction of the blank for the respective serum (a well without a coupled peptide), were considered to be positive.
# [2] = test system: antibodies in sera from patients suffering from various infectious diseases; experiment: ELISA with sera from patients suffering from various infectious diseases; format: binding, human; details: 308 tested sera
# [3] = test system: recombinant monoclonal antibody described by applicants; experiment: Reactivity of peptides with the recombinant monoclonal antibody; format: binding
# [4] = test system: antibodies in pSS (primary Sjögren's syndrome) sera; experiment: ELISA of coupled peptides with pSS sera; format: binding, human; details: n = 50
# Procedure: as §1, §2
# [5] = test system: antibodies in control sera from patients suffering from rheumatic diseases other than RA; experiment: ELISA of coupled peptides with control sera; format: binding, human; details: for control sera (%) positive / control sera: number of positive sera: n = 154, rheumatic diseases other than RA
# Procedure: as §1, §2
# In total, 288 sera from patients suffering from rheumatoid diseases were used, 132 of which were from patients suffering from rheumatoid arthritis.
# [6] = test system: autoimmune antibodies in sera from patients suffering from rheumatoid arthritis; experiment: ELISA of coupled peptides with RA sera; format: binding, human; details: n = 134 RA sera, positive = OD450 of 0.2 after deduction of blank; for RA sera: number of positive sera: sera diluted 200 times
# Procedure: as §1
# as §2, with “positive. […]” for “positive.”
# [7] = test system: antibodies in SLE (systemic lupus erythematosus) sera; experiment: ELISA of coupled peptides with SLE sera; format: binding, human; details: n = 50
# Procedure: as §1, §2
# [8] = test system: antibodies in PM/DM (polymyositis/dermatomyositis) sera; experiment: ELISA of coupled peptides with PM/DM sera; format: binding, human; details: n = 50
# Procedure: as §1, §2
Sequence,SSC: number of positive sera [1],infectious disease sera: number positive [2],specificity in respect of infectious disease sera [2],reactivity with the recombinant monoclonal antibody [3],pSS: number of positive sera [4],control sera (%) positive [5],control sera: number of positive sera [5],percentage of false positives ([5]; other autoimmune diseases and healthy individuals),RA sera (%) positive [6],RA sera (%) positive ([6]; listed as Formula II),RA sera: number of positive sera [6],SLE (%) positive [7],SLE: number of positive sera [7],PM/DM: number of positive sera [8],pSS (%) positive [4],PM/DM (%) positive [8]
SHQESTXGRSRGRSGRSGS (SHQEST[Cit]GRSRGRSGRSGS-NH2; N-terminus assumed; SMILES C[C@@H](O)[C@H](NC(=O)[C@H](CO)NC(=O)[C@H](CCC(=O)O)NC(=O)[C@H](CCC(N)=O)NC(=O)[C@H](Cc1c[nH]cn1)NC(=O)[C@@H](N)CO)C(=O)N[C@@H](CCCNC(N)=O)C(=O)NCC(=O)N[C@@H](CCCNC(=N)N)C(=O)N[C@@H](CO)C(=O)N[C@@H](CCCNC(=N)N)C(=O)NCC(=O)N[C@@H](CCCNC(=N)N)C(=O)N[C@@H](CO)C(=O)NCC(=O)N[C@@H](CCCNC(=N)N)C(=O)N[C@@H](CO)C(=O)NCC(=O)N[C@@H](CO)C(N)=O) [cfc1],0,9,97%,reactive,0,0.6%,1,less than 2%,36%,about 36%,49,2%,1,0,–,–
SHQESTXGRSXGRSGRSGS (SHQEST[Cit]GRS[Cit]GRSGRSGS-NH2; N-terminus assumed; SMILES C[C@@H](O)[C@H](NC(=O)[C@H](CO)NC(=O)[C@H](CCC(=O)O)NC(=O)[C@H](CCC(N)=O)NC(=O)[C@H](Cc1c[nH]cn1)NC(=O)[C@@H](N)CO)C(=O)N[C@@H](CCCNC(N)=O)C(=O)NCC(=O)N[C@@H](CCCNC(=N)N)C(=O)N[C@@H](CO)C(=O)N[C@@H](CCCNC(N)=O)C(=O)NCC(=O)N[C@@H](CCCNC(=N)N)C(=O)N[C@@H](CO)C(=O)NCC(=O)N[C@@H](CCCNC(=N)N)C(=O)N[C@@H](CO)C(=O)NCC(=O)N[C@@H](CO)C(N)=O) [cfc7],0,–,–,–,1,0.6%,1,–,45%,–,60,–,0,1,2%,2%
SHQESTXGXSRGRSGRSGS (SHQEST[Cit]G[Cit]SRGRSGRSGS-NH2; N-terminus assumed; SMILES C[C@@H](O)[C@H](NC(=O)[C@H](CO)NC(=O)[C@H](CCC(=O)O)NC(=O)[C@H](CCC(N)=O)NC(=O)[C@H](Cc1c[nH]cn1)NC(=O)[C@@H](N)CO)C(=O)N[C@@H](CCCNC(N)=O)C(=O)NCC(=O)N[C@@H](CCCNC(N)=O)C(=O)N[C@@H](CO)C(=O)N[C@@H](CCCNC(=N)N)C(=O)NCC(=O)N[C@@H](CCCNC(=N)N)C(=O)N[C@@H](CO)C(=O)NCC(=O)N[C@@H](CCCNC(=N)N)C(=O)N[C@@H](CO)C(=O)NCC(=O)N[C@@H](CO)C(N)=O) [cfc6],0,–,–,–,2,0.6%,1,–,48%,–,65,–,0,1,4%,2%
